Test results published in the NIST ThermoML archive (doi:10.1021/je060271a).
Numbers after ± are expanded uncertainties.

Settings: Liquid, Vibrating tube method

Work on CCCCCCCC(=O)OCC(COC(=O)CCCCCCC)(COC(=O)CCCCCCC)COC(=O)CCCCCCC [pentaerythritol tetraoctanoate] yielded a mass density (283.15 K, 29618 kPa) of 986.1 ± 1.2 kg/m3, a mass density (283.15 K, 29659 kPa) of 986 ± 1.2 kg/m3 and a mass density (283.15 K, 29698 kPa) of 986.2 ± 1.2 kg/m3. The mass density (283.15 K, 29736 kPa) was 986.1 ± 1.2 kg/m3, the mass density (283.15 K, 29782 kPa) was 986.2 ± 1.2 kg/m3 and the mass density (283.15 K, 29821 kPa) was 986.2 ± 1.2 kg/m3. The mass density (283.15 K, 29859 kPa) was 986.3 ± 1.2 kg/m3, the mass density (283.15 K, 29906 kPa) was 986.3 ± 1.2 kg/m3 and the mass density (283.15 K, 29946 kPa) was 986.3 ± 1.2 kg/m3. It also gave a mass density (283.15 K, 29992 kPa) of 986.4 ± 1.2 kg/m3, a mass density (283.15 K, 30032 kPa) of 986.4 ± 1.2 kg/m3 and a mass density (283.15 K, 30071 kPa) of 986.3 ± 1.2 kg/m3. It also gave a mass density (283.15 K, 30118 kPa) of 986.4 ± 1.2 kg/m3, a mass density (283.15 K, 30158 kPa) of 986.4 ± 1.2 kg/m3 and a mass density (283.15 K, 30201 kPa) of 986.4 ± 1.2 kg/m3. The mass density (283.15 K, 30242 kPa) was 986.5 ± 1.2 kg/m3, the mass density (283.15 K, 30289 kPa) was 986.4 ± 1.2 kg/m3 and the mass density (283.15 K, 30330 kPa) was 986.5 ± 1.2 kg/m3. The mass density (283.15 K, 30370 kPa) was 986.4 ± 1.2 kg/m3, the mass density (283.15 K, 30418 kPa) was 986.5 ± 1.2 kg/m3 and the mass density (283.15 K, 30459 kPa) was 986.5 ± 1.2 kg/m3. The mass density (283.15 K, 30500 kPa) was 986.6 ± 1.2 kg/m3, the mass density (283.15 K, 30549 kPa) was 986.6 ± 1.2 kg/m3 and the mass density (283.15 K, 30590 kPa) was 986.6 ± 1.2 kg/m3. For the same compound, the mass density (283.15 K, 30631 kPa) was 986.6 ± 1.2 kg/m3, the mass density (283.15 K, 30673 kPa) was 986.6 ± 1.2 kg/m3 and the mass density (283.15 K, 30724 kPa) was 986.6 ± 1.2 kg/m3. The mass density (283.15 K, 30766 kPa) was 986.7 ± 1.2 kg/m3, the mass density (283.15 K, 30808 kPa) was 986.8 ± 1.2 kg/m3 and the mass density (283.15 K, 30850 kPa) was 986.6 ± 1.2 kg/m3. For the same compound, the mass density (283.15 K, 30900 kPa) was 986.7 ± 1.2 kg/m3, the mass density (283.15 K, 30942 kPa) was 986.8 ± 1.2 kg/m3 and the mass density (283.15 K, 30985 kPa) was 986.9 ± 1.2 kg/m3. The mass density (283.15 K, 31036 kPa) was 986.8 ± 1.2 kg/m3, the mass density (283.15 K, 31079 kPa) was 986.8 ± 1.2 kg/m3 and the mass density (283.15 K, 31123 kPa) was 986.8 ± 1.2 kg/m3. For the same compound, the mass density (283.15 K, 31174 kPa) was 986.8 ± 1.2 kg/m3, the mass density (283.15 K, 31217 kPa) was 986.9 ± 1.2 kg/m3 and the mass density (283.15 K, 31260 kPa) was 986.9 ± 1.2 kg/m3. It also gave a mass density (283.15 K, 31312 kPa) of 987 ± 1.2 kg/m3, a mass density (283.15 K, 31356 kPa) of 987.1 ± 1.2 kg/m3 and a mass density (283.15 K, 31399 kPa) of 987 ± 1.2 kg/m3. For the same compound, the mass density (283.15 K, 31451 kPa) was 987.1 ± 1.2 kg/m3, the mass density (283.15 K, 31495 kPa) was 987.1 ± 1.2 kg/m3 and the mass density (283.15 K, 31539 kPa) was 987 ± 1.2 kg/m3. For the same compound, the mass density (283.15 K, 31584 kPa) was 987 ± 1.2 kg/m3, the mass density (283.15 K, 31637 kPa) was 987.1 ± 1.2 kg/m3 and the mass density (283.15 K, 31682 kPa) was 987.2 ± 1.2 kg/m3. For the same compound, the mass density (283.15 K, 31727 kPa) was 987.1 ± 1.2 kg/m3, the mass density (283.15 K, 31781 kPa) was 987.2 ± 1.2 kg/m3 and the mass density (283.15 K, 31826 kPa) was 987.2 ± 1.2 kg/m3. The mass density (283.15 K, 31872 kPa) was 987.1 ± 1.2 kg/m3, the mass density (283.15 K, 31928 kPa) was 987.2 ± 1.2 kg/m3 and the mass density (283.15 K, 31976 kPa) was 987.3 ± 1.2 kg/m3. It also gave a mass density (283.15 K, 32024 kPa) of 987.3 ± 1.2 kg/m3, a mass density (283.15 K, 32078 kPa) of 987.3 ± 1.2 kg/m3 and a mass density (283.15 K, 32117 kPa) of 987.3 ± 1.2 kg/m3. It also gave a mass density (283.15 K, 32155 kPa) of 987.4 ± 1.2 kg/m3, a mass density (283.15 K, 32186 kPa) of 987.4 ± 1.2 kg/m3 and a mass density (283.15 K, 32232 kPa) of 987.5 ± 1.2 kg/m3. For the same compound, the mass density (283.15 K, 32279 kPa) was 987.3 ± 1.2 kg/m3, the mass density (283.15 K, 32317 kPa) was 987.5 ± 1.2 kg/m3 and the mass density (283.15 K, 32364 kPa) was 987.6 ± 1.2 kg/m3. For the same compound, the mass density (283.15 K, 32402 kPa) was 987.5 ± 1.2 kg/m3, the mass density (283.15 K, 32442 kPa) was 987.6 ± 1.2 kg/m3 and the mass density (283.15 K, 32488 kPa) was 987.5 ± 1.2 kg/m3. The mass density (283.15 K, 32528 kPa) was 987.5 ± 1.2 kg/m3, the mass density (283.15 K, 32567 kPa) was 987.6 ± 1.2 kg/m3 and the mass density (283.15 K, 32614 kPa) was 987.6 ± 1.2 kg/m3. For the same compound, the mass density (283.15 K, 32653 kPa) was 987.6 ± 1.2 kg/m3, the mass density (283.15 K, 32700 kPa) was 987.7 ± 1.2 kg/m3 and the mass density (283.15 K, 32740 kPa) was 987.6 ± 1.2 kg/m3. For the same compound, the mass density (283.15 K, 32779 kPa) was 987.7 ± 1.2 kg/m3, the mass density (283.15 K, 32819 kPa) was 987.7 ± 1.2 kg/m3 and the mass density (283.15 K, 32868 kPa) was 987.8 ± 1.2 kg/m3. The mass density (283.15 K, 32908 kPa) was 987.7 ± 1.2 kg/m3, the mass density (283.15 K, 32947 kPa) was 987.7 ± 1.2 kg/m3 and the mass density (283.15 K, 32996 kPa) was 987.9 ± 1.2 kg/m3. It also gave a mass density (283.15 K, 33037 kPa) of 987.8 ± 1.2 kg/m3, a mass density (283.15 K, 33127 kPa) of 987.8 ± 1.2 kg/m3 and a mass density (283.15 K, 33168 kPa) of 987.9 ± 1.2 kg/m3. For the same compound, the mass density (283.15 K, 33209 kPa) was 987.9 ± 1.2 kg/m3, the mass density (283.15 K, 33260 kPa) was 987.8 ± 1.2 kg/m3 and the mass density (283.15 K, 33301 kPa) was 987.9 ± 1.2 kg/m3. It also gave a mass density (283.15 K, 33344 kPa) of 988 ± 1.2 kg/m3, a mass density (283.15 K, 33396 kPa) of 988 ± 1.2 kg/m3 and a mass density (283.15 K, 33439 kPa) of 988 ± 1.2 kg/m3. For the same compound, the mass density (283.15 K, 33492 kPa) was 988.1 ± 1.2 kg/m3, the mass density (283.15 K, 33538 kPa) was 988 ± 1.2 kg/m3 and the mass density (283.15 K, 33585 kPa) was 988.1 ± 1.2 kg/m3. It also gave a mass density (283.15 K, 33636 kPa) of 988.2 ± 1.2 kg/m3, a mass density (283.15 K, 33684 kPa) of 988.1 ± 1.2 kg/m3 and a mass density (283.15 K, 33728 kPa) of 988.1 ± 1.2 kg/m3. It also gave a mass density (283.15 K, 33754 kPa) of 988.1 ± 1.2 kg/m3, a mass density (283.15 K, 33776 kPa) of 988.2 ± 1.2 kg/m3 and a mass density (283.15 K, 33797 kPa) of 988.2 ± 1.2 kg/m3. It also gave a mass density (283.15 K, 33823 kPa) of 988.2 ± 1.2 kg/m3, a mass density (283.15 K, 33845 kPa) of 988.1 ± 1.2 kg/m3 and a mass density (283.15 K, 33867 kPa) of 988.2 ± 1.2 kg/m3. It also gave a mass density (283.15 K, 33889 kPa) of 988.2 ± 1.2 kg/m3, a mass density (283.15 K, 33915 kPa) of 988.4 ± 1.2 kg/m3 and a mass density (283.15 K, 33937 kPa) of 988.3 ± 1.2 kg/m3. For the same compound, the mass density (283.15 K, 33959 kPa) was 988.3 ± 1.2 kg/m3, the mass density (283.15 K, 33986 kPa) was 988.2 ± 1.2 kg/m3 and the mass density (283.15 K, 34008 kPa) was 988.3 ± 1.2 kg/m3. The mass density (283.15 K, 34126 kPa) was 988.4 ± 1.2 kg/m3, the mass density (283.15 K, 34154 kPa) was 988.4 ± 1.2 kg/m3 and the mass density (283.15 K, 34177 kPa) was 988.3 ± 1.2 kg/m3. For the same compound, the mass density (283.15 K, 34205 kPa) was 988.4 ± 1.2 kg/m3, the mass density (283.15 K, 34229 kPa) was 988.5 ± 1.2 kg/m3 and the mass density (283.15 K, 34255 kPa) was 988.4 ± 1.2 kg/m3. The mass density (283.15 K, 34282 kPa) was 988.4 ± 1.2 kg/m3, the mass density (283.15 K, 34314 kPa) was 988.4 ± 1.2 kg/m3 and the mass density (283.15 K, 34342 kPa) was 988.4 ± 1.2 kg/m3. For the same compound, the mass density (283.15 K, 34371 kPa) was 988.6 ± 1.2 kg/m3, the mass density (283.15 K, 34402 kPa) was 988.5 ± 1.2 kg/m3 and the mass density (283.15 K, 34407 kPa) was 988.5 ± 1.2 kg/m3. For the same compound, the mass density (283.15 K, 34408 kPa) was 988.5 ± 1.2 kg/m3, the mass density (283.15 K, 34409 kPa) was 988.5 ± 1.2 kg/m3 and the mass density (283.15 K, 34410 kPa) was 988.5 ± 1.2 kg/m3. For the same compound, the mass density (283.16 K, 5633.2 kPa) was 973.4 ± 1.2 kg/m3, the mass density (283.16 K, 22751 kPa) was 982.8 ± 1.2 kg/m3 and the mass density (283.16 K, 22773 kPa) was 982.7 ± 1.2 kg/m3. For the same compound, the mass density (283.16 K, 22795 kPa) was 982.6 ± 1.2 kg/m3, the mass density (283.16 K, 33086 kPa) was 987.8 ± 1.2 kg/m3 and the mass density (283.16 K, 33707 kPa) was 988.2 ± 1.2 kg/m3. It also gave a mass density (283.16 K, 34030 kPa) of 988.3 ± 1.2 kg/m3, a mass density (283.16 K, 34053 kPa) of 988.3 ± 1.2 kg/m3 and a mass density (283.16 K, 34080 kPa) of 988.4 ± 1.2 kg/m3. The mass density (283.16 K, 34103 kPa) was 988.3 ± 1.2 kg/m3, the mass density (303.14 K, 3768.3 kPa) was 957.8 ± 1.2 kg/m3 and the mass density (303.14 K, 3783 kPa) was 957.7 ± 1.2 kg/m3. For the same compound, the mass density (303.14 K, 3800.7 kPa) was 957.8 ± 1.2 kg/m3, the mass density (303.14 K, 3818.7 kPa) was 957.7 ± 1.2 kg/m3 and the mass density (303.14 K, 3833.9 kPa) was 957.8 ± 1.2 kg/m3. It also gave a mass density (303.14 K, 3852.1 kPa) of 957.7 ± 1.2 kg/m3, a mass density (303.14 K, 3867.4 kPa) of 957.7 ± 1.2 kg/m3 and a mass density (303.14 K, 3885.9 kPa) of 957.9 ± 1.2 kg/m3. The mass density (303.14 K, 3920.2 kPa) was 957.8 ± 1.2 kg/m3, the mass density (303.14 K, 3936.3 kPa) was 957.8 ± 1.2 kg/m3 and the mass density (303.14 K, 3956 kPa) was 957.8 ± 1.2 kg/m3. The mass density (303.14 K, 3973 kPa) was 957.8 ± 1.2 kg/m3, the mass density (303.14 K, 3988.9 kPa) was 958 ± 1.2 kg/m3 and the mass density (303.14 K, 4008.8 kPa) was 957.9 ± 1.2 kg/m3. The mass density (303.14 K, 4024.9 kPa) was 957.8 ± 1.2 kg/m3, the mass density (303.14 K, 4044.7 kPa) was 957.9 ± 1.2 kg/m3 and the mass density (303.14 K, 4060.9 kPa) was 958 ± 1.2 kg/m3. The mass density (303.14 K, 4081.2 kPa) was 957.9 ± 1.2 kg/m3.
